In ChEMBL document CHEMBL1150883, “Antitumor-promoting naphthoquinones from Catalpa ovata” (J Nat Prod, 1998):

Columns and labels:
Assay type in all cases: cell-based
[1] = system: Raji; assay: Inhibition of 12-O-tetradecanoylphorbol-13-acetate induced EBV-early antigen activation in human Raji cells at 1000 molar ratio per 32 pmol/ml TPA by immunofluorescence technique relative to control; design: scale not given: the % may be the effect or the level left; details: human gammaherpesvirus 4
[2] = system: Raji; assay: Inhibition of 12-O-tetradecanoylphorbol-13-acetate induced EBV-early antigen activation in human Raji cells at 10 molar ratio per 32 pmol/ml TPA by immunofluorescence technique relative to control; design: Activity: scale not given: the % may be the effect or the level left; details: human gammaherpesvirus 4
[3] = Cytotoxicity against human Raji cells assessed as cell viability at 1000 molar ratio after 48 hrs; details: read-out: Activity
[4] = Cytotoxicity against human Raji cells assessed as cell viability at 500 molar ratio after 48 hrs; details: read-out: Activity

Row | SMILES | Activity [1] | EBV-EA activation remaining (% of TPA control) [2] | viability at 48 h, 1000 molar ratio [3] | Activity [2] | viability at 48 h, 500 molar ratio [4]
1 | COc1cccc2c1C(=O)C1=C(CCC(C)(C)O1)C2=O | 83.8% | 100% | 70% | – | –
2 | CC1(C)C[C@H](O)C2=C(O1)C(=O)c1c(O)cccc1C2=O | 36.1% | 100% | 60% | – | –
3 | CC1(C)C[C@H](O)[C@H]2C(=O)c3ccccc3[C@@H](O)[C@@H]2O1 | 0% | 93.8% | 70% | – | –
4 | C=C(C)[C@H]1CC2=C(O1)C(=O)c1c(OC)cccc1C2=O | 0% | – | 60% | 100% | –
5 | CC1(C)C[C@H](O)C2=C(O1)C(=O)c1ccccc1C2=O | 11.2% | 86.7% | 60% | – | –
6 | COc1cccc2c1C(=O)C1=C(C(=O)CC(C)(C)O1)C2=O | 32.7% | 100% | 70% | – | –
7 | CC1=C(/C=C/C(C)=C/C=C/C(C)=C/C=C/C=C(C)/C=C/C=C(C)/C=C/C2=C(C)CCCC2(C)C)C(C)(C)CCC1 [BETA CAROTENE] | 8.6% | 100% | 70% | – | –
8 | C=C(C)[C@@H]1OC2=C(C(=O)c3ccccc3C2=O)[C@@H]1O | 0% | 88.5% | 30% | – | 60%
9 | CC1(C)CC=C(C2OC(=O)c3ccccc32)C(=O)O1 (stereo not drawn) [CATALPALACTONE] | 0% | 89.5% | 70% | – | –
